Test results: PMC12040169 (PLOS Biology, 2025)

How the values were obtained:
[1] = tested on: T1, CTL2-GFP (C. trachomatis L2/434/Bu, GFP-expressing); experiment: microbe, parasite or virus in culture; parameters: Intracellular C. trachomatis growth in HeLa cells, bulk GFP fluorescence relative to DMSO; settings: Chlamydia trachomatis, HeLa, 28.5 h; bulk GFP, mean of 2; read-out: % of control remaining
T1 construct: L2/434/Bu, GFP-expressing
Procedure: MICs were calculated as described above.

[2] = in vitro; parameters: Viability of infected HeLa host cells, resazurin conversion, bulk resorufin fluorescence relative to DMSO; settings: human, hela cells; bulk resorufin, mean of 2
[3] = tested on: T2, C. trachomatis L2/434/Bu expressing GFP (CTL2-GFP); experiment: microbe, parasite or virus in culture; parameters: C. trachomatis total inclusion area by high-content imaging, normalised to DMSO; settings: Chlamydia trachomatis, HeLa, 28.5 h; total inclusion area; read-out: % of control remaining
T2 construct: L2/434/Bu GFP intracellular growth in HeLa cells
Procedure, shortened: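 A 36,785-compound library was screened using bulk GFP and resorufin fluorescence, followed by Hoechst staining and high-content imaging of inclusions (GFP) and host nuclei. Inclusion area and number served as growth proxies and nuclei counts as a viability proxy. MICs were calculated from these readouts.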

| Compound | activity at 1 µM [1] [%] | activity at 5 µM [1] [%] | activity at 10 µM [1] [%] | viability at 28.5 h, 1 µM [2] [%] | viability at 28.5 h, 5 µM [2] [%] | viability at 28.5 h, 10 µM [2] [%] | activity at 1 µM [3] [%] | activity at 5 µM [3] [%] | activity at 10 µM [3] [%] |
| --- | --- | --- | --- | --- | --- | --- | --- | --- | --- |
| CC(=O)NC[C@H]1CN(c2ccc3c(c2)CCN(C(=O)Oc2ccccc2)CC3)C(=O)O1 [CBK018498] | 125 | 13.7 | 1.02 | 98.7 | 94.2 | 97.3 | 72.8 | 12.5 | 3.33 |
| CC(=O)NC[C@H]1CN(c2ccc3c(c2)CCN(C(=O)Cc2ccccc2)CC3)C(=O)O1 [CBK018499] | 37.5 | 2.41 | 5.46 | 92.9 | 95.9 | 92.1 | 38 | 0.495 | 0.215 |
| CCCCc1ccc(Nc2csc(N)n2)cc1 [CBK020594] | 67.9 | 10.8 | 6.72 | 89.3 | 84.9 | 76.9 | 58.1 | 0.609 | 0.496 |
| C1=C(CCNCCc2ccccc2)c2ccccc2C12CCCC2 [CBK024723] | 137 | 49.2 | 3.86 | 96.5 | 89.8 | 97.2 | 112 | 42.8 | 0.759 |
| CN1CCCN(c2cc(C(F)(F)F)c3scc(C(=O)NCc4cccc(F)c4F)c3n2)CC1 [CBK036386T] | 124 | 97.2 | 57.7 | 99 | 101 | 101 | 69.4 | 59.6 | 46.9 |
| Cc1ccc2[nH]c3c(c2c1)CCOC31CCN(Cc2ccccc2-c2ccccc2)CC1 [CBK039915] | 69.3 | 33.8 | 27.9 | 99.1 | 93.6 | 100 | 27.9 | 15.9 | 7.2 |
| Fc1cc(CN2CCC3(CC2)OCCc2c3[nH]c3ccc(Br)cc23)cc(F)c1F [CBK039943] | 121 | 66.6 | 46.8 | 98.2 | 92.1 | 90.4 | 102 | 32.3 | 21.4 |
| CC(C)c1ccc(S(=O)(=O)Nc2cccc(SC(F)(F)F)c2)cc1 [CBK044581] | 113 | 76 | 82.6 | 96.5 | 95.7 | 103 | 116 | 69.4 | 80.6 |
| CCc1nnc(NS(=O)(=O)c2ccc(NC(=S)Nc3ccc(F)cc3)cc2)s1 [CBK050037] | 72 | 22.8 | 13.7 | 98.2 | 89.3 | 93.2 | 98.5 | 26.5 | 17.6 |
| O=C(Nc1ccc(F)cc1)c1[nH]c2ccccc2c1NS(=O)(=O)c1cc(Cl)sc1Cl [CBK050094] | 151 | 124 | 118 | 90 | 96.8 | 86.9 | 126 | 99.9 | 62.7 |
| COc1ccc([C@@]23CC=C(N(Cc4ccccc4)C(=O)Nc4ccc(F)c(F)c4)C[C@@H]2N(C)CC3)cc1OC [CBK050179] | 105 | 86.7 | 69.8 | 93.3 | 95 | 112 | 62.1 | 80.2 | 52.4 |
| O=S(=O)(Nc1ccc(C(F)(F)F)cc1Cl)c1cc(Br)c(Cl)s1 [CBK057196] | 142 | 108 | 69.6 | 90.4 | 93.1 | 88.2 | 114 | 75.1 | 57.9 |
| Cc1cc(C)c2c(N)c(C(=O)Nc3ccc(Br)cc3)sc2n1 [CBK072019] | 107 | 95.1 | 100 | 97.9 | 98.9 | 106 | 98.4 | 59.7 | 91 |
| COc1cccc(CNc2ccc(N3CCOCC3)cc2)c1OCc1ccccc1F [CBK074406] | 135 | 97.1 | 65.4 | 86.4 | 83.8 | 90.9 | 130 | 63.6 | 41.5 |
| COc1ccc([C@@]23CC[C@@H](NC(=O)c4ccc(-c5ccccc5)cc4)CC2N(C)CC3)cc1OC (stereo partly drawn) [CBK074973T] | 113 | 78.4 | 39.7 | 93.9 | 94.3 | 87.1 | 118 | 93.3 | 31.1 |
| CC(C)(C)c1cc(C(=O)Nc2ccncc2)n(Cc2ccc(Cl)cc2Cl)n1 [CBK107284] | 116 | 74.6 | 24.2 | 94.9 | 94 | 97.3 | 117 | 57.8 | 39.7 |
| O=[N+]([O-])c1cc([N+](=O)[O-])c2cccnc2c1NNc1nncc2ccccc12 [CBK110409] | 107 | 69 | 22.1 | 93 | 89.1 | 86.6 | 108 | 63.9 | 31 |
| Cc1ccc(C(=O)NCCCN2CCC3(CC2)OCCc2c3[nH]c3ccccc23)cc1 [CBK113485] | 114 | 80 | 21.4 | 86.4 | 88 | 78.1 | 88.7 | 33.7 | 5.52 |
| CN(C)CCCNC(=O)Nc1cccc(-c2nc(-c3ccc(C#N)cc3)cnc2N)c1 [CBK116287] | 102 | 71.8 | 14.2 | 104 | 89.1 | 97.5 | 116 | 66.5 | 4.68 |
| COC(=O)CCc1ccc(-c2cnc(N)c(-c3ccc(O)cc3)n2)cc1 [CBK122809] | 122 | 108 | 93.5 | 114 | 118 | 113 | 92.1 | 83.5 | 80.2 |
| CCNC(=O)N1CC2(CCN(Cc3nc4ccccc4[nH]3)CC2)c2ccccc21 [CBK126693] | 115 | 120 | 109 | 100 | 94.1 | 96.7 | 74.5 | 89.8 | 65 |
| Cn1c(=O)c2c(ncn2Cc2ccccc2)n(C)c1=O [CBK133402] | 119 | 115 | 111 | 111 | 110 | 109 | 100 | 51.9 | 66.7 |
| CC(=O)Nc1ccc(-c2cccc(COC3CCN(C(=O)c4ccc(OC(C)C)cc4)CC3)c2)cc1 [CBK149485] | 107 | 30.6 | 6.64 | 89.4 | 92.4 | 93.9 | 97.4 | 32.5 | 7.93 |
| O=C(NCCc1c[nH]c2ccc(Cl)cc12)c1ccc(Cl)cc1Br [CBK159755] | 100 | 71.3 | 19.1 | 89 | 88.9 | 93.1 | 91 | 79.9 | 32.4 |
| Cc1cc(Br)ccc1C(=O)NCCc1c[nH]c2ccc(Cl)cc12 [CBK159771] | 95.1 | 57.5 | 22.3 | 109 | 106 | 108 | 116 | 67.5 | 47.4 |
